Data: patent US11578012B2, “Use of N-functionalized alkoxy pyrazole compounds as nitrification inhibitors” (BASF SE, priority 2018, dated 2023)

Test: volatility (statement on prior-art compound)
Type: physicochemical
Conditions: qualitative statement, no method given

CCOc1cc(C)[nH]n1 [3-ethoxy-5-methylpyrazole]
volatility: high volatility
